Literature values, collected in US11053255B2, “Synthesis of mahanine and related compounds” (Georgetown University, priority 2015, dated 2021).

How the values were obtained:
[1] = system: androgen-responsive, LNCaP prostate cancer cells; conditions: in vitro
[2] = system: androgen-independent, PC3 prostate cancer cells; conditions: in vitro
[3] = system: RASSF1A; conditions: human prostate cancer cells, dose-dependent
[4] = system: cyclin D1; conditions: prostate cancer cells

## CC(C)=CCC[C@]1(C)C=Cc2c(c(C)cc3c2[nH]c2cc(O)ccc23)O1 [mahanine, (R)-3,5-dimethyl-3-(4-methylpent-3-en-1-yl)-3,11-dihydropyrano[3,2-a]carbazol-9-ol]
[1]
  growth inhibition: inhibits growth
  induction of apoptosis: induces apoptosis
[2]
  growth inhibition: inhibits growth
  induction of apoptosis: induces apoptosis
[3]
  expression of RASSF1A: induces the expression of RASSF1A
[4]
  cyclin D1 transcriptional activity: represses cyclin D1 transcriptional activity
